{
  "source": "patent US8258114B2",
  "about": "“Modulation of glucose-6-phosphatase translocase expression” (Isis Pharmaceuticals, Inc., priority 2004, dated 2012)",
  "note": "Oligonucleotides are written 5' to 3', each unit as a sugar letter and its base; * is a phosphorothioate linkage, no mark a phosphodiester; rarer units and linkages stand in square brackets, end groups in braces. Plain capitals give the bases only. e = 2'-O-(2-methoxyethyl) (MOE); [5mC] = 5-methylcytosine; d = 2'-deoxy (DNA)",
  "data": [
    {"system": "mouse glucose-6-phosphatase translocase mRNA", "test": "Antisense inhibition of mouse glucose-6-phosphatase translocase mRNA in primary mouse hepatocytes, 150 nM, LIPOFECTIN (Table 22)", "assay_type": "cell-based", "conditions": "real-time PCR", "procedure": "Primary mouse hepatocytes were prepared from CD-1 mice purchased from Charles River Labs. Primary mouse hepatocytes were routinely cultured in Hepatocyte Attachment Media supplemented with 10% fetal bovine serum (Invitrogen Life Technologies, Carlsbad, Calif.), 250 nM dexamethasone, and 10 nM bovine insulin (Sigma-Aldrich, St. Louis, Mo.). Cells were seeded into 96-well plates (Falcon-Primaria #353872, BD Biosciences, Bedford, Mass.) at a density of approximately 4,000-6,000 cells/well for use in oligomeric compound transfection experiments.\nWhen cells reached 65-75% confluency, they were treated with oligonucleotide. Oligonucleotide was mixed with LIPOFECTIN™ Invitrogen Life Technologies, Carlsbad, Calif.) in Opti-MEM™-1 reduced serum medium (Invitrogen Life Technologies, Carlsbad, Calif.) to achieve the desired concentration of oligonucleotide and a LIPOFECTIN™ concentration of 2.5 or 3 μg/mL per 100 nM oligonucleotide. This transfection mixture was incubated at room temperature for approximately 0.5 hours. For cells grown in 96-well plates, wells were washed once with 100 μL OPTI-MEM™-1 and then treated with 130 μL of the transfection mixture. Cells grown in 24-well plates or other standard tissue culture plates are treated similarly, using appropriate volumes of medium and oligonucleotide. Cells are treated and data are obtained in duplicate or triplicate. After approximately 4-7 hours of treatment at 37° C., the medium containing the transfection mixture was replaced with fresh culture medium. Cells were harvested 16-24 hours after oligonucleotide treatment.\nQuantitation of glucose 6-phosphatase translocase mRNA levels was accomplished by real-time quantitative PCR using the ABI PRISM™ 7600, 7700, or 7900 Sequence Detection System (PE-Applied Biosystems, Foster City, Calif.) according to manufacturer's instructions.\nPrior to quantitative PCR analysis, primer-probe sets specific to the target gene being measured were evaluated for their ability to be “multiplexed” with a GAPDH amplification reaction. After isolation the RNA is subjected to sequential reverse transcriptase (RT) reaction and real-time PCR, both of which are performed in the same well. RT and PCR reagents were obtained from Invitrogen Life Technologies (Carlsbad, Calif.). […] The RT reaction was carried out by incubation for 30 minutes at 48° C. Following a 10 minute incubation at 95° C. to activate the PLATINUM® Taq, 40 cycles of a two-step PCR protocol were carried out: 95° C. for 15 seconds (denaturation) followed by 60° C. for 1.5 minutes (annealing/extension).\nGene target quantities obtained by RT, real-time PCR were normalized using either the expression level of GAPDH, a gene whose expression is constant, or by quantifying total RNA using RiboGreen™ (Molecular Probes, Inc. Eugene, Oreg.). GAPDH expression was quantified by RT, real-time PCR, by being run simultaneously with the target, multiplexing, or separately. Total RNA was quantified using RiboGreen™ RNA quantification reagent (Molecular Probes, Inc. Eugene, Oreg.).\nA series of oligomeric compounds was designed to target different regions of mouse glucose-6-phosphatase translocase, using published sequences cited in Table 1. All compounds in Table 22 are chimeric oligonucleotides (“gapmers”) 20 nucleotides in length, composed of a central “gap” region consisting of 10 2′-deoxynucleotides, which is flanked on both sides (5′ and 3′) by five-nucleotide “wings”. The wings are composed of 2′-O-(2-methoxyethyl) nucleotides, also known as 2′-MOE nucleotides. The internucleoside (backbone) linkages are phosphorothioate throughout the oligonucleotide. All cytidine residues are 5-methylcytidines. The compounds were analyzed for their effect on gene target mRNA levels by quantitative real-time PCR as described in other examples herein, using the following primer-probe set designed to hybridize to mouse glucose-6-phosphatase translocase: • forward primer: […]", "units": {"% Inhib of mouse glucose-6-phosphatase translocase mRNA levels": "%"}, "values": [
      {"substance": "145647 (antisense e[5mC]*eT*e[5mC]*eT*eT*dG*dA*d[5mC]*dT*dG*d[5mC]*dT*d[5mC]*d[5mC]*dT*eG*e[5mC]*eT*eT*eG) [compound 145647]", "% Inhib of mouse glucose-6-phosphatase translocase mRNA levels": 52},
      {"substance": "145648 (antisense e[5mC]*eT*eT*e[5mC]*eT*dG*dA*d[5mC]*d[5mC]*dA*d[5mC]*dA*dG*dA*d[5mC]*eT*e[5mC]*eT*eT*eG) [compound 145648]", "% Inhib of mouse glucose-6-phosphatase translocase mRNA levels": 26},
      {"substance": "145649 (antisense eG*e[5mC]*e[5mC]*e[5mC]*eA*d[5mC]*dT*d[5mC]*d[5mC]*dA*dG*dT*dA*d[5mC]*dT*eT*e[5mC]*eT*eG*eA) [compound 145649]", "% Inhib of mouse glucose-6-phosphatase translocase mRNA levels": 61},
      {"substance": "145650 (antisense eA*eA*eG*e[5mC]*eT*dG*dG*d[5mC]*d[5mC]*d[5mC]*dT*dG*d[5mC]*dT*dG*eG*e[5mC]*e[5mC]*e[5mC]*eA) [compound 145650]", "% Inhib of mouse glucose-6-phosphatase translocase mRNA levels": 54},
      {"substance": "145651 (antisense eG*eT*eA*eG*eA*dA*dA*dA*dA*dG*d[5mC]*dT*dG*dG*d[5mC]*e[5mC]*e[5mC]*eT*eG*e[5mC]) [compound 145651]", "% Inhib of mouse glucose-6-phosphatase translocase mRNA levels": 31},
      {"substance": "145653 (antisense eT*eT*eG*eG*eG*d[5mC]*dT*dG*d[5mC]*d[5mC]*dA*dT*dG*dG*dT*eA*eG*eA*eA*eA) [compound 145653]", "% Inhib of mouse glucose-6-phosphatase translocase mRNA levels": 42},
      {"substance": "145654 (antisense eA*eG*eT*eG*e[5mC]*dG*dA*dT*dA*dG*dT*dA*dG*d[5mC]*d[5mC]*eG*eT*eA*eG*e[5mC]) [compound 145654]", "% Inhib of mouse glucose-6-phosphatase translocase mRNA levels": 47},
      {"substance": "145655 (antisense eA*eA*e[5mC]*eA*eT*dG*dG*d[5mC]*d[5mC]*dG*d[5mC]*dA*dA*dA*dT*eA*eT*eG*eA*e[5mC]) [compound 145655]", "% Inhib of mouse glucose-6-phosphatase translocase mRNA levels": 29},
      {"substance": "145656 (antisense eT*eA*e[5mC]*eA*eG*dG*d[5mC]*dT*dG*dT*dA*dG*d[5mC]*d[5mC]*dT*e[5mC]*e[5mC]*eA*eA*eA) [compound 145656]", "% Inhib of mouse glucose-6-phosphatase translocase mRNA levels": 47},
      {"substance": "145658 (antisense eT*eG*eG*eT*e[5mC]*dT*dG*dA*d[5mC]*dA*dG*dA*dA*d[5mC]*d[5mC]*e[5mC]*e[5mC]*eG*e[5mC]*eT) [compound 145658]", "% Inhib of mouse glucose-6-phosphatase translocase mRNA levels": 36},
      {"substance": "145659 (antisense e[5mC]*eG*e[5mC]*eT*e[5mC]*dA*dT*d[5mC]*dT*dG*dG*dT*d[5mC]*dT*dG*eA*e[5mC]*eA*eG*eA) [compound 145659]", "% Inhib of mouse glucose-6-phosphatase translocase mRNA levels": 15},
      {"substance": "145660 (antisense eT*eG*eT*eG*eG*dA*dG*d[5mC]*dT*d[5mC]*d[5mC]*dA*dT*dG*dA*eG*eA*eA*eG*eA) [compound 145660]", "% Inhib of mouse glucose-6-phosphatase translocase mRNA levels": 40},
      {"substance": "145661 (antisense eA*e[5mC]*e[5mC]*eA*eA*dG*dG*dA*dG*d[5mC]*dA*dG*d[5mC]*dA*dA*eA*eG*eG*e[5mC]*eT) [compound 145661]", "% Inhib of mouse glucose-6-phosphatase translocase mRNA levels": 25},
      {"substance": "145663 (antisense eT*eT*eG*eA*e[5mC]*dA*dA*d[5mC]*dA*d[5mC]*dA*dG*d[5mC]*d[5mC]*d[5mC]*eA*e[5mC]*e[5mC]*eA*eA) [compound 145663]", "% Inhib of mouse glucose-6-phosphatase translocase mRNA levels": 48},
      {"substance": "145665 (antisense e[5mC]*e[5mC]*eA*eG*e[5mC]*d[5mC]*dA*dG*dG*dT*dT*d[5mC]*dA*dT*dG*e[5mC]*eT*eG*eG*eT) [compound 145665]", "% Inhib of mouse glucose-6-phosphatase translocase mRNA levels": 22},
      {"substance": "145666 (antisense eA*eA*eG*eA*eT*dA*dG*dG*dT*d[5mC]*d[5mC]*d[5mC]*dA*dA*dA*e[5mC]*eT*eT*e[5mC]*e[5mC]) [compound 145666]", "% Inhib of mouse glucose-6-phosphatase translocase mRNA levels": 28},
      {"substance": "145669 (antisense e[5mC]*eA*e[5mC]*eA*eG*dT*dG*d[5mC]*d[5mC]*d[5mC]*d[5mC]*dA*dG*dA*d[5mC]*eA*eG*eG*eG*e[5mC]) [compound 145669]", "% Inhib of mouse glucose-6-phosphatase translocase mRNA levels": 9},
      {"substance": "145672 (antisense eT*eG*eT*eG*eG*dA*dT*dG*dA*dG*d[5mC]*dA*dG*d[5mC]*dA*eG*eA*e[5mC]*eA*eG) [compound 145672]", "% Inhib of mouse glucose-6-phosphatase translocase mRNA levels": 8},
      {"substance": "145674 (antisense e[5mC]*eA*eG*e[5mC]*eA*dG*dG*dT*dT*d[5mC]*dA*dT*dT*dG*dT*eG*eG*eA*eT*eG) [compound 145674]", "% Inhib of mouse glucose-6-phosphatase translocase mRNA levels": 43},
      {"substance": "145675 (antisense eA*eA*e[5mC]*eA*eT*d[5mC]*dA*dG*d[5mC]*dA*dG*dG*dT*dT*d[5mC]*eA*eT*eT*eG*eT) [compound 145675]", "% Inhib of mouse glucose-6-phosphatase translocase mRNA levels": 23},
      {"substance": "145676 (antisense GAGTCCAACATCAGCAGGTTCA; 2'-MOE gapmer, further chemistry not given here) [compound 145676]", "% Inhib of mouse glucose-6-phosphatase translocase mRNA levels": 51},
      {"substance": "145677 (antisense e[5mC]*eT*eT*e[5mC]*eT*dT*dG*d[5mC]*d[5mC]*d[5mC]*dT*d[5mC]*dA*dG*dA*eG*eG*eG*e[5mC]*eA) [compound 145677]", "% Inhib of mouse glucose-6-phosphatase translocase mRNA levels": 9},
      {"substance": "145678 (antisense eG*eA*eG*e[5mC]*e[5mC]*d[5mC]*dT*dT*d[5mC]*dT*dT*dG*d[5mC]*d[5mC]*d[5mC]*eT*e[5mC]*eA*eG*eA) [compound 145678]", "% Inhib of mouse glucose-6-phosphatase translocase mRNA levels": 60},
      {"substance": "145679 (antisense eT*e[5mC]*eA*eA*eG*dG*dA*dG*d[5mC]*d[5mC]*d[5mC]*dT*dT*d[5mC]*dT*eT*eG*e[5mC]*e[5mC]*e[5mC]) [compound 145679]", "% Inhib of mouse glucose-6-phosphatase translocase mRNA levels": 17},
      {"substance": "145680 (antisense e[5mC]*eT*e[5mC]*e[5mC]*eT*dT*d[5mC]*dA*dA*dG*dG*dA*dG*d[5mC]*d[5mC]*e[5mC]*eT*eT*e[5mC]*eT) [compound 145680]", "% Inhib of mouse glucose-6-phosphatase translocase mRNA levels": 0},
      {"substance": "145681 (antisense e[5mC]*eT*e[5mC]*eT*e[5mC]*d[5mC]*dT*d[5mC]*d[5mC]*dT*dT*d[5mC]*dA*dA*dG*eG*eA*eG*e[5mC]*e[5mC]) [compound 145681]", "% Inhib of mouse glucose-6-phosphatase translocase mRNA levels": 36},
      {"substance": "145682 (antisense eG*eG*eG*eT*eG*d[5mC]*dT*d[5mC]*dT*d[5mC]*d[5mC]*dT*d[5mC]*d[5mC]*dT*eT*e[5mC]*eA*eA*eG) [compound 145682]", "% Inhib of mouse glucose-6-phosphatase translocase mRNA levels": 31},
      {"substance": "145683 (antisense e[5mC]*eA*eG*e[5mC]*eT*d[5mC]*d[5mC]*dT*dG*dT*dA*dG*dG*dG*dT*eG*e[5mC]*eT*e[5mC]*eT) [compound 145683]", "% Inhib of mouse glucose-6-phosphatase translocase mRNA levels": 0},
      {"substance": "145684 (antisense eT*e[5mC]*eT*eT*eT*dA*d[5mC]*dT*d[5mC]*d[5mC]*dG*dA*dA*dG*dA*e[5mC]*e[5mC]*eA*e[5mC]*eA) [compound 145684]", "% Inhib of mouse glucose-6-phosphatase translocase mRNA levels": 43},
      {"substance": "145687 (antisense e[5mC]*eT*e[5mC]*e[5mC]*eT*dG*dG*dA*dT*dA*dA*dG*dG*dA*dA*eG*eA*eA*e[5mC]*eT) [compound 145687]", "% Inhib of mouse glucose-6-phosphatase translocase mRNA levels": 12},
      {"substance": "145688 (antisense eA*e[5mC]*eT*eG*e[5mC]*d[5mC]*d[5mC]*dT*d[5mC]*dT*d[5mC]*dT*d[5mC]*d[5mC]*dT*eG*eG*eA*eT*eA) [compound 145688]", "% Inhib of mouse glucose-6-phosphatase translocase mRNA levels": 25},
      {"substance": "145689 (antisense e[5mC]*eA*eA*eG*eG*dG*d[5mC]*dG*dG*dA*d[5mC]*dT*dG*d[5mC]*d[5mC]*e[5mC]*eT*e[5mC]*eT*e[5mC]) [compound 145689]", "% Inhib of mouse glucose-6-phosphatase translocase mRNA levels": 34}
    ]}
  ]
}
